Measurements: patent US8242109B2, “Compositions and methods relating to novel compounds and targets thereof” (priority 2007, dated 2012)
Where two headings read alike, the source gives them in different places.

Assays:
Ramos cells = experiment: Cytotoxicity in Ramos cells; format: cell-based; settings: Homo sapiens, read-out: Ramos Cell EC50
Description: (§1) The compounds listed in Table 4 were tested for activity against F1F0-ATPase and cytotoxicity in Ramos cells. Inhibition of ATP synthesis and hydrolysis by the F1F0-ATPase was measured as described in K. M. Johnson et al., Chemistry & Biology 2005, 12, 485-496. Cytotoxicity in Ramos cells was measured as described in K. M. Johnson et al., Chemistry & Biology 2005, 12, 485-496, or using the alamarBlue™ Assay with fluorescence detection (U.S. Pat. No. 5,501,959) as supplied and described by Invitrogen (Carlsbad, Calif.).

F1F0-ATPase = target: T1, F1F0-ATPase (Bos taurus, UniProt P13621); experiment: Inhibition of ATP synthesis and hydrolysis by the F1F0-ATPase; format: biochemical
T1 construct: from tissue; host or cells: bovine sub-mitochondrial particles (SMPs)
Description: as §1

| SMILES | EC50 (Ramos cells; cytotoxicity in Ramos cells) [µM] | IC50 (F1F0-ATPase) [µM] | EC50 (Ramos cells; Ramos) [µM] |
| --- | --- | --- | --- |
| CC(C)c1ccc(CC2N=C(c3ccc(O)cc3)c3cc(Cl)ccc3N(C)C2=O)cc1 (centres unmarked) [Compound 31, (Z)-7-chloro-5-(4-hydroxyphenyl)-3-(4-isopropylbenzyl)-1-methyl-1H-benzo[e][1,4]diazepin-2(3H)-one] | 5 to 10 | 5 to 10 | – |
| CN1C(=O)C(Cc2ccccc2C(F)(F)F)N=C(c2ccc(O)cc2)c2cc(Cl)ccc21 (centres unmarked) [Compound 32, (Z)-7-chloro-5-(4-hydroxyphenyl)-1-methyl-3-(2-(trifluoromethyl)benzyl)-1H-benzo[e][1,4]diazepin-2(3H)-one] | 5 to 10 | 5 to 10 | – |
| O=C1Nc2ccc(Cl)cc2C(c2ccc(O)cc2)=NC1Cc1ccccc1Br (centres unmarked) [Compound 33, (Z)-3-(2-bromobenzyl)-7-chloro-5-(4-hydroxyphenyl)-1H-benzo[e][1,4]diazepin-2(3H)-one] | – | 5 to 10 | < 5 |
| CN1C(=O)C(Cc2ccccc2Cl)N=C(c2ccc(O)cc2)c2cc(Cl)ccc21 (centres unmarked) [Compound 34, (Z)-7-chloro-3-(2-chlorobenzyl)-5-(4-hydroxyphenyl)-1-methyl-1H-benzo[e][1,4]diazepin-2(3H)-one] | 5 to 10 | < 5 | – |
| CN1C(=O)C(Cc2ccc(C(F)(F)F)cc2)N=C(c2ccc(O)cc2)c2cc(Cl)ccc21 (centres unmarked) [Compound 36, (Z)-7-chloro-5-(4-hydroxyphenyl)-1-methyl-3-(4-(trifluoromethyl)benzyl)-1H-benzo[e][1,4]diazepin-2(3H)-one] | 5 to 10 | < 5 | – |
| CN1C(=O)C(Cc2cccc(Br)c2)N=C(c2ccc(O)cc2)c2cc(Cl)ccc21 (centres unmarked) [Compound 37, (Z)-3-(3-bromobenzyl)-7-chloro-5-(4-hydroxyphenyl)-1-methyl-1H-benzo[e][1,4]diazepin-2(3H)-one] | 5 to 10 | < 5 | – |
| CN1C(=O)C(Cc2ccc(Br)cc2)N=C(c2ccc(O)cc2)c2cc(Cl)ccc21 (centres unmarked) [Compound 38, (Z)-3-(4-bromobenzyl)-7-chloro-5-(4-hydroxyphenyl)-1-methyl-1H-benzo[e][1,4]diazepin-2(3H)-one] | 5 to 10 | < 5 | – |
| CN1C(=O)C(Cc2cccc(Cl)c2)N=C(c2ccc(O)cc2)c2cc(Cl)ccc21 (centres unmarked) [Compound 39, (Z)-7-chloro-3-(3-chlorobenzyl)-5-(4-hydroxyphenyl)-1-methyl-1H-benzo[e][1,4]diazepin-2(3H)-one] | > 10 | > 10 | – |
| O=C1Nc2ccc(Cl)cc2C(c2ccc(O)cc2)=NC1Cc1ccccc1Cl (centres unmarked) [Compound 40, (Z)-7-chloro-3-(2-chlorobenzyl)-5-(4-hydroxyphenyl)-1H-benzo[e][1,4]diazepin-2(3H)-onc] | – | < 5 | 5 to 10 |
| O=C1Nc2ccc(Cl)cc2C(c2ccc3[nH]c(=O)[nH]c3c2)=NC1Cc1ccccc1Cl (centres unmarked) [Compound 41, (Z)-7-chloro-3-(2-chlorobenzyl)-5-(2-oxo-2,3-dihydro-1H-benzo[d]imidazol-5-yl)-1H-benzo[e][1,4]diazepin-2(3H)-one] | < 5 | < 5 | – |
